According to patent US4226863A, “7-Methoxy cephalosporins” (Sumitomo Chemical Company, Limited, priority 1975, dated 1980):
≈ marks a conversion by molar mass, not a printed value.

Legend:
Assay type in all cases: cell-based
Proteus vulgaris HX 19 = experiment: antimicrobial activity, minimum inhibitory concentration, Proteus vulgaris HX 19; details: HX19
Description: (§1) The antimicrobial activities of the compounds prepared in the previous Examples were determined in a usual manner and the minimum inhibitory concentrations (in terms of μg/ml) are set forth in the Table below.

[1] = tested on: Enterobacter aerogenes No. 101; experiment: antimicrobial activity, minimum inhibitory concentration, Enterobacter aerogenes No. 101; details: Klebsiella aerogenes
Description: as §1

[2] = tested on: Pseudomonas aeruginosa IID 5142; experiment: antimicrobial activity, minimum inhibitory concentration, Pseudomonas aeruginosa IID 5142; details: IID5142
Description: as §1

Escherichia coli NIHJ = experiment: antimicrobial activity, minimum inhibitory concentration, Escherichia coli NIHJ
Serratia No. 115 = experiment: antimicrobial activity, minimum inhibitory concentration, Serratia No. 115
Description: as §1

SMILES	MIC (Proteus vulgaris HX 19) [µg/mL]	MIC [1] [µg/mL]	MIC [2] [µg/mL]	MIC (Escherichia coli NIHJ) [µg/mL]	MIC (Serratia No. 115) [µg/mL]
CO[C@@]1(NC(=O)C(NC(=O)c2cnccc2O)c2ccc(O)cc2)C(=O)N2C(C(=O)O)=C(CSc3nnnn3C)CS[C@@H]21 (stereo partly shown) [Example 9]	0.39 (≈ 0.62 µM)	12.5 (≈ 19.9 µM)	6.25 (≈ 9.94 µM)	12.5 (≈ 19.9 µM)	50 (≈ 79.5 µM)
COC1(NC(=O)C(NC(=O)c2cnc3cccnc3c2O)C2=CCCCC2)C(=O)N2C(C(=O)O)=C(COC(C)=O)CSC21 (stereo not shown) [Example 36]	0.39 (≈ 0.638 µM)	12.5 (≈ 20.4 µM)	3.13 (≈ 5.12 µM)	3.13 (≈ 5.12 µM)	50 (≈ 81.7 µM)
CO[C@@]1(NC(=O)C(NC(=O)c2cnc3nc(C)ccc3c2O)c2ccc(O)cc2)C(=O)N2C(C(=O)O)=C(COC(C)=O)CS[C@@H]21 (stereo partly shown) [Example 15]	1.56 (≈ 2.45 µM)	50 (≈ 78.4 µM)	12.5 (≈ 19.6 µM)	12.5 (≈ 19.6 µM)	100 (≈ 157 µM)
COC1(NC(=O)C(NC(=O)c2nnc(S)nc2O)c2ccccc2)C(=O)N2C(C(=O)O)=C(CSc3nnc(C)s3)CSC21 (stereo not shown) [Example 53]	1.56 (≈ 2.35 µM)	50 (≈ 75.4 µM)	25 (≈ 37.7 µM)	25 (≈ 37.7 µM)	100 (≈ 151 µM)
COC1(NC(=O)C(NC(=O)c2cnc3cccnc3c2O)c2ccc(O)cc2)C(=O)N2C(C(=O)O)=C(CSc3ccc4nnnn4n3)CSC21 (stereo not shown) [Example 47]	0.39 (≈ 0.544 µM)	6.25 (≈ 8.72 µM)	6.25 (≈ 8.72 µM)	3.13 (≈ 4.37 µM)	12.5 (≈ 17.4 µM)
COC1(NC(=O)C(NC(=O)c2cnc3cccnc3c2O)C2=CCC=CC2)C(=O)N2C(C(=O)O)=C(CSc3nnc(C)s3)CSC21 (stereo not shown) [Example 32]	0.39 (≈ 0.572 µM)	6.25 (≈ 9.17 µM)	3.13 (≈ 4.59 µM)	3.13 (≈ 4.59 µM)	25 (≈ 36.7 µM)
COC1(NC(=O)C(NC(=O)c2cnccc2O)c2ccc(O)c(F)c2)C(=O)N2C(C(=O)O)=C(CSc3nnnn3C)CSC21 (stereo not shown) [Example 41]	0.39 (≈ 0.603 µM)	12.5 (≈ 19.3 µM)	6.25 (≈ 9.67 µM)	12.5 (≈ 19.3 µM)	50 (≈ 77.3 µM)
COC1(NC(=O)C(NC(=O)c2cnc3cccnc3c2O)c2cccs2)C(=O)N2C(C(=O)O)=C(COC(N)=O)CSC21 (stereo not shown) [Example 48]	0.39 (≈ 0.635 µM)	6.25 (≈ 10.2 µM)	3.13 (≈ 5.09 µM)	3.13 (≈ 5.09 µM)	25 (≈ 40.7 µM)
COC1(NC(=O)C(NC(=O)c2nnc(SC)nc2O)c2ccccc2)C(=O)N2C(C(=O)O)=C(COC(N)=O)CSC21 (stereo not shown) [Example 51]	1.56 (≈ 2.58 µM)	50 (≈ 82.6 µM)	25 (≈ 41.3 µM)	25 (≈ 41.3 µM)	100 (≈ 165 µM)
COC1(NC(=O)C(NC(=O)c2cnccc2O)C2=CCC=CC2)C(=O)N2C(C(=O)O)=C(COC(N)=O)CSC21 (stereo not shown) [Example 33]	0.39 (≈ 0.697 µM)	50 (≈ 89.4 µM)	12.5 (≈ 22.3 µM)	12.5 (≈ 22.3 µM)	100 (≈ 179 µM)
CO[C@@]1(NC(=O)C(NC(=O)c2ccnnc2O)c2ccc(O)cc2)C(=O)N2C(C(=O)O)=C(CSc3nnnn3C)CS[C@@H]21 (stereo partly shown) [Example 12]	0.78 (≈ 1.24 µM)	25 (≈ 39.7 µM)	25 (≈ 39.7 µM)	12.5 (≈ 19.9 µM)	100 (≈ 159 µM)
COC1(NC(=O)C(NC(=O)c2cnc3cccnc3c2O)c2cccc(O)c2)C(=O)N2C(C(=O)O)=C(CSc3nnc(C)s3)CSC21 (stereo not shown) [Example 31]	0.39 (≈ 0.561 µM)	6.25 (≈ 8.98 µM)	3.13 (≈ 4.5 µM)	3.13 (≈ 4.5 µM)	25 (≈ 35.9 µM)
CO[C@@]1(NC(=O)C(NC(=O)c2nccnc2O)c2ccc(O)cc2)C(=O)N2C(C(=O)O)=C(CSc3nnc(C)s3)CS[C@@H]21 (stereo partly shown) [Example 27]	1.56 (≈ 2.42 µM)	50 (≈ 77.4 µM)	25 (≈ 38.7 µM)	25 (≈ 38.7 µM)	50 (≈ 77.4 µM)
CCN(CC)c1ccc2ncc(C(=O)NC(C(=O)N[C@]3(OC)C(=O)N4C(C(=O)O)=C(CSc5cnn[nH]5)CS[C@@H]43)c3ccc(O)cc3)c(O)c2n1 (stereo partly shown) [Example 22]	0.39 (≈ 0.53 µM)	6.25 (≈ 8.49 µM)	3.13 (≈ 4.25 µM)	3.13 (≈ 4.25 µM)	25 (≈ 34 µM)
CO[C@@]1(NC(=O)C(NC(=O)c2cnc3nc(N4CCNCC4)ncc3c2O)c2ccc(O)cc2)C(=O)N2C(C(=O)O)=C(COC(N)=O)CS[C@@H]21 (stereo partly shown) [Example 25]	0.78 (≈ 1.1 µM)	25 (≈ 35.2 µM)	6.25 (≈ 8.81 µM)	12.5 (≈ 17.6 µM)	50 (≈ 70.5 µM)
COC1(NC(=O)C(NC(=O)c2cnccc2O)c2cccc(O)c2)C(=O)N2C(C(=O)O)=C(CSc3nnc(CO)s3)CSC21 (stereo not shown) [Example 42]	0.78 (≈ 1.18 µM)	25 (≈ 37.8 µM)	12.5 (≈ 18.9 µM)	12.5 (≈ 18.9 µM)	50 (≈ 75.7 µM)
CO[C@@]1(NC(=O)C(NC(=O)c2cncnc2O)c2ccc(O)cc2)C(=O)N2C(C(=O)O)=C(CSc3nnnn3C)CS[C@@H]21 (stereo partly shown) [Example 10]	0.39 (≈ 0.619 µM)	12.5 (≈ 19.9 µM)	12.5 (≈ 19.9 µM)	12.5 (≈ 19.9 µM)	50 (≈ 79.4 µM)
CO[C@@]1(NC(=O)[C@H](NC(=O)c2cnc3cccnc3c2O)c2ccccc2)C(=O)N2C(C(=O)O)=C(COC(C)=O)CS[C@@H]21 [Example 1, 3-Acetoxymethyl-7α-methoxy-7β-[D-2-(4-hydroxy-1,5-naphthyridine-3-carbonamido)-2-phenylacetamido]-3-cephem-4-carboxylic Acid]	0.39 (≈ 0.642 µM)	6.25 (≈ 10.3 µM)	1.56 (≈ 2.57 µM)	3.13 (≈ 5.15 µM)	50 (≈ 82.3 µM)

SMILES	MIC (Proteus vulgaris HX 19) [µg/mL]	MIC [1] [µg/mL]	MIC [2] [µg/mL]	MIC (Escherichia coli NIHJ) [µg/mL]	MIC (Serratia No. 115) [µg/mL]
COC1(NC(=O)C(NC(=O)c2nnc(O)nc2O)c2ccc(O)cc2)C(=O)N2C(C(=O)O)=C(CSc3nnnn3C)CSC21 (stereo not shown) [Example 50]	1.56 (≈ 2.41 µM)	25 (≈ 38.7 µM)	12.5 (≈ 19.3 µM)	12.5 (≈ 19.3 µM)	50 (≈ 77.3 µM)
CNc1nnc(SCC2=C(C(=O)O)N3C(=O)[C@](NC(=O)C(NC(=O)c4cnc5ccc(OC)nc5c4O)c4ccc(O)c(Cl)c4)(OC)[C@H]3SC2)s1 (stereo partly shown) [Example 21]	0.39 (≈ 0.503 µM)	6.25 (≈ 8.06 µM)	3.13 (≈ 4.04 µM)	1.56 (≈ 2.01 µM)	12.5 (≈ 16.1 µM)
CO[C@@]1(NC(=O)C(NC(=O)c2cnc3nc(SC)ncc3c2O)c2ccc(O)cc2)C(=O)N2C(C(=O)O)=C(CSc3ccc(O)nn3)CS[C@@H]21 (stereo partly shown) [Example 19]	0.78 (≈ 1.06 µM)	12.5 (≈ 16.9 µM)	3.13 (≈ 4.24 µM)	6.25 (≈ 8.46 µM)	25 (≈ 33.8 µM)
COC1(NC(=O)C(NC(=O)c2cnc3scnc3c2O)c2ccc(O)cc2)C(=O)N2C(C(=O)O)=C(COC(N)=O)CSC21 (stereo not shown) [Example 30]	0.39 (≈ 0.618 µM)	12.5 (≈ 19.8 µM)	6.25 (≈ 9.91 µM)	6.25 (≈ 9.91 µM)	12.5 (≈ 19.8 µM)
COC1(NC(=O)C(NC(=O)c2cc3ncccc3nc2O)c2ccc(O)cc2)C(=O)N2C(C(=O)O)=C(CSc3nnnn3C)CSC21 (stereo not shown) [Example 28]	0.39 (≈ 0.574 µM)	6.25 (≈ 9.2 µM)	3.13 (≈ 4.6 µM)	1.56 (≈ 2.3 µM)	6.25 (≈ 9.2 µM)
COC1(NC(=O)C(NC(=O)c2cnc3cncnc3c2O)c2ccc(O)cc2)C(=O)N2C(C(=O)[O-])=C(C[n+]3ccc(C(N)=O)cc3)CSC21 (stereo not shown) [Example 37]	0.78 (≈ 1.14 µM)	6.25 (≈ 9.1 µM)	12.5 (≈ 18.2 µM)	6.25 (≈ 9.1 µM)	50 (≈ 72.8 µM)
CO[C@@]1(NC(=O)C(NC(=O)c2cnccc2O)c2ccccc2)C(=O)N2C(C(=O)O)=C(COC(C)=O)CS[C@@H]21 (stereo partly shown) [Example 8]	0.39 (≈ 0.701 µM)	25 (≈ 44.9 µM)	6.25 (≈ 11.2 µM)	12.5 (≈ 22.5 µM)	100 (≈ 180 µM)
CO[C@@]1(NC(=O)[C@H](NC(=O)c2cnc3cccnc3c2O)c2ccc(O)cc2)C(=O)N2C(C(=O)O)=C(COC(N)=O)CS[C@@H]21 [Example 5, 3-Carbamoyloxymethyl-7α-methoxy-7β-[D-2-(4-hydroxy-1,5-naphthyridine-3-carbonamido)-2-(p-hydroxyphenyl)-acetamido]-3-cephem-4-caboxylic Acid]	0.39 (≈ 0.624 µM)	6.25 (≈ 10 µM)	3.13 (≈ 5.01 µM)	3.13 (≈ 5.01 µM)	50 (≈ 80.1 µM)
CO[C@@]1(NC(=O)C(NC(=O)c2cnc3cncnc3c2O)c2ccccc2)C(=O)N2C(C(=O)O)=C(CSc3nnnn3C)CS[C@@H]21 (stereo partly shown) [Example 7]	0.78 (≈ 1.17 µM)	6.25 (≈ 9.4 µM)	6.25 (≈ 9.4 µM)	6.25 (≈ 9.4 µM)	12.5 (≈ 18.8 µM)
COC1(NC(=O)C(NC(=O)c2cnc3cn[nH]c3c2O)c2ccc(O)cc2)C(=O)N2C(C(=O)O)=C(CSc3nnnn3C)CSC21 (stereo not shown) [Example 46]	0.39 (≈ 0.583 µM)	6.25 (≈ 9.35 µM)	6.25 (≈ 9.35 µM)	1.56 (≈ 2.33 µM)	6.25 (≈ 9.35 µM)
CO[C@@]1(NC(=O)C(NC(=O)c2cccnc2O)c2ccc(O)cc2)C(=O)N2C(C(=O)O)=C(COC(N)=O)CS[C@@H]21 (stereo partly shown) [Example 23]	0.78 (≈ 1.36 µM)	50 (≈ 87.2 µM)	12.5 (≈ 21.8 µM)	12.5 (≈ 21.8 µM)	100 (≈ 174 µM)
CO[C@@]1(NC(=O)C(NC(=O)c2cnccc2O)c2ccccc2)C(=O)N2C(C(=O)[O-])=C(C[n+]3ccccc3)CS[C@@H]21 (stereo partly shown) [Example 16]	1.56 (≈ 2.71 µM)	25 (≈ 43.4 µM)	6.25 (≈ 10.9 µM)	12.5 (≈ 21.7 µM)	50 (≈ 86.9 µM)
CO[C@@]1(NC(=O)C(NC(=O)c2cnc3nc(SC)ncc3c2O)c2ccc(O)cc2)C(=O)N2C(C(=O)O)=C(COC(N)=O)CS[C@@H]21 (stereo partly shown) [Example 18]	0.78 (≈ 1.16 µM)	12.5 (≈ 18.6 µM)	6.25 (≈ 9.31 µM)	12.5 (≈ 18.6 µM)	50 (≈ 74.4 µM)
COC1(NC(=O)C(NC(=O)c2cnc3cccnc3c2O)c2ccc(O)c(O)c2)C(=O)N2C(C(=O)O)=C(CSc3nnc(C)s3)CSC21 (stereo not shown) [Example 45]	0.78 (≈ 1.1 µM)	12.5 (≈ 17.6 µM)	6.25 (≈ 8.78 µM)	3.13 (≈ 4.4 µM)	12.5 (≈ 17.6 µM)
COc1cnc2c(O)c(C(=O)NC(C(=O)N[C@]3(OC)C(=O)N4C(C(=O)O)=C(CSc5nnnn5C)CS[C@@H]43)c3ccc(O)cc3)cnc2n1 (stereo partly shown) [Example 17]	0.2 (≈ 0.281 µM)	6.25 (≈ 8.79 µM)	3.13 (≈ 4.4 µM)	3.13 (≈ 4.4 µM)	6.25 (≈ 8.79 µM)
COC1(NC(=O)C(NC(=O)c2cnccc2O)c2cccs2)C(=O)N2C(C(=O)O)=C(CSc3nnnn3C)CSC21 (stereo not shown) [Example 34]	0.39 (≈ 0.63 µM)	12.5 (≈ 20.2 µM)	6.25 (≈ 10.1 µM)	12.5 (≈ 20.2 µM)	50 (≈ 80.8 µM)
CO[C@@]1(NC(=O)C(NC(=O)c2ncccc2O)c2ccccc2)C(=O)N2C(C(=O)[O-])=C(C[n+]3ccc(C(N)=O)cc3)CS[C@@H]21 (stereo partly shown) [Example 24]	0.78 (≈ 1.26 µM)	25 (≈ 40.4 µM)	12.5 (≈ 20.2 µM)	12.5 (≈ 20.2 µM)	50 (≈ 80.8 µM)
